From ChEMBL document CHEMBL5303573, “Mapping human microbiome drug metabolism by gut bacteria and their genes” (Nature, 2019)

Tests used:
[1] = bacteroides thetaiotaomicron, 12 h, 2 µM
Description: The drug is tested on Bacteroides thetaiotaomicron strain: VPI-5482 for biotransformation. The drug concentrations were measured before and after a 12-h incubation by liquid-chromatography-coupled mass spectrometry (LC–MS)

[2] = bacteroides intestinalis, 12 h, 2 µM
Description: The drug is tested on Bacteroides intestinalis strain: DSM17393 for biotransformation. The drug concentrations were measured before and after a 12-h incubation by liquid-chromatography-coupled mass spectrometry (LC–MS)

[3] = The drug is tested on Bacteroides xylanisolvens strain: DSM18836 for biotransformation. The drug concentrations were measured before and after a 12-h incubation by liquid-chromatography-coupled mass spectrometry (LC–MS); conditions: 2 µM
[4] = bacteroides fragilis, 12 h, 2 µM
Description: The drug is tested on Bacteroides fragilis strain: 3397 (T10) for biotransformation. The drug concentrations were measured before and after a 12-h incubation by liquid-chromatography-coupled mass spectrometry (LC–MS)

[5] = The drug is tested on Bacteroides finegoldii strain: DSM17565 for biotransformation. The drug concentrations were measured before and after a 12-h incubation by liquid-chromatography-coupled mass spectrometry (LC–MS); conditions: 2 µM
[6] = anaerostipes sp., 12 h, 2 µM
Description: The drug is tested on Anaerostipes sp. strain: fecal isolate for biotransformation. The drug concentrations were measured before and after a 12-h incubation by liquid-chromatography-coupled mass spectrometry (LC–MS)

[7] = parabacteroides distasonis, 12 h, 2 µM
Description: The drug is tested on Parabacteroides distasonis strain: ATCC8503 for biotransformation. The drug concentrations were measured before and after a 12-h incubation by liquid-chromatography-coupled mass spectrometry (LC–MS)

[8] = The drug is tested on Alistipes indistinctus strain: DSM22520 for biotransformation. The drug concentrations were measured before and after a 12-h incubation by liquid-chromatography-coupled mass spectrometry (LC–MS); conditions: 2 µM
[9] = The drug is tested on Clostridium sp. strain: fecal isolate for biotransformation. The drug concentrations were measured before and after a 12-h incubation by liquid-chromatography-coupled mass spectrometry (LC–MS); conditions: 2 µM
[10] = The drug is tested on Bacteroides coprophilus strain: DSM18228 for biotransformation. The drug concentrations were measured before and after a 12-h incubation by liquid-chromatography-coupled mass spectrometry (LC–MS); conditions: 2 µM
[11] = The drug is tested on Anaerotruncus colihominis strain: DSM17241 for biotransformation. The drug concentrations were measured before and after a 12-h incubation by liquid-chromatography-coupled mass spectrometry (LC–MS); conditions: 2 µM
[12] = bacteroides thetaiotaomicron, 12 h, 2 µM; remark: listed apart in the source
Description: The drug is tested on Bacteroides thetaiotaomicron strain: 3731 for biotransformation. The drug concentrations were measured before and after a 12-h incubation by liquid-chromatography-coupled mass spectrometry (LC–MS)

[13] = The drug is tested on Dorea formicigenerans strain: ATCC27755 for biotransformation. The drug concentrations were measured before and after a 12-h incubation by liquid-chromatography-coupled mass spectrometry (LC–MS); conditions: 2 µM
[14] = bacteroides thetaiotaomicron, 12 h, 2 µM; remark: listed apart in the source
Description: The drug is tested on Bacteroides thetaiotaomicron strain: 7330 for biotransformation. The drug concentrations were measured before and after a 12-h incubation by liquid-chromatography-coupled mass spectrometry (LC–MS)

[15] = The drug is tested on Ruminococcus gnavus strain: ATCC29149 for biotransformation. The drug concentrations were measured before and after a 12-h incubation by liquid-chromatography-coupled mass spectrometry (LC–MS); conditions: mediterraneibacter gnavus, 2 µM
[16] = The drug is tested on Bifidobacterium longum subsp. Infantis strain: CCUG52486 for biotransformation. The drug concentrations were measured before and after a 12-h incubation by liquid-chromatography-coupled mass spectrometry (LC–MS); conditions: 2 µM
[17] = bifidobacterium adolescentis, 12 h, 2 µM
Description: The drug is tested on Bifidobacterium adolescentis strain: ATCC 15703 for biotransformation. The drug concentrations were measured before and after a 12-h incubation by liquid-chromatography-coupled mass spectrometry (LC–MS)

[18] = roseburia intestinalis, 12 h, 2 µM
Description: The drug is tested on Roseburia intestinalis strain: L1-82 for biotransformation. The drug concentrations were measured before and after a 12-h incubation by liquid-chromatography-coupled mass spectrometry (LC–MS)

[19] = The drug is tested on Ruminococcus torques strain: ATCC27756 for biotransformation. The drug concentrations were measured before and after a 12-h incubation by liquid-chromatography-coupled mass spectrometry (LC–MS); type: ADME; design: dose 2 uM, timepoint 0 vs 12 hours; conditions: 2 µM
[20] = The drug is tested on Enterobacter cancerogenus strain: ATCC35316 for biotransformation. The drug concentrations were measured before and after a 12-h incubation by liquid-chromatography-coupled mass spectrometry (LC–MS); conditions: 2 µM

Row | SMILES | Bacterial Biotransformation [1] | Bacterial Biotransformation [2] | Bacterial Biotransformation [3] | Bacterial Biotransformation [4] | Bacterial Biotransformation [5] | Bacterial Biotransformation [6] | Bacterial Biotransformation [7] | Bacterial Biotransformation [8] | Bacterial Biotransformation [9] | Bacterial Biotransformation [10] | Bacterial Biotransformation [11] | Bacterial Biotransformation [12] | Bacterial Biotransformation [13] | Bacterial Biotransformation [14] | Bacterial Biotransformation [15] | Bacterial Biotransformation [16] | Bacterial Biotransformation [17] | Bacterial Biotransformation [18] | Bacterial Biotransformation [19] | Bacterial Biotransformation [20]
1 | CC(=O)OCC(=O)[C@@]1(OC(C)=O)[C@@H](C)C[C@H]2[C@@H]3C[C@H](F)C4=CC(=O)C=C[C@]4(C)[C@@]3(F)[C@@H](O)C[C@@]21C [DIFLORASONE DIACETATE] | Compound metabolized | Compound metabolized | Compound metabolized | Compound metabolized | Compound metabolized | Compound metabolized | Compound metabolized | Compound metabolized | Compound metabolized | Compound NOT metabolized | Compound metabolized | Compound metabolized | Compound NOT metabolized | Compound metabolized | Compound NOT metabolized | Compound metabolized | Compound metabolized | Compound metabolized |  | 
2 | COc1ccc([C@@H]2Sc3ccccc3N(CCN(C)C)C(=O)[C@@H]2OC(C)=O)cc1 [DILTIAZEM] | Compound metabolized | Compound metabolized | Compound metabolized |  | Compound metabolized | Compound metabolized | Compound metabolized | Compound metabolized | Compound metabolized | Compound metabolized | Compound NOT metabolized | Compound metabolized | Compound metabolized | Compound metabolized | Compound NOT metabolized | Compound metabolized | Compound NOT metabolized | Compound NOT metabolized | Compound metabolized | 
3 | OCCN(CCO)c1nc(N2CCCCC2)c2nc(N(CCO)CCO)nc(N3CCCCC3)c2n1 [DIPYRIDAMOLE] | Compound NOT metabolized | Compound NOT metabolized |  | Compound NOT metabolized | Compound NOT metabolized | Compound NOT metabolized | Compound NOT metabolized | Compound NOT metabolized | Compound metabolized | Compound NOT metabolized | Compound NOT metabolized | Compound NOT metabolized | Compound NOT metabolized | Compound NOT metabolized | Compound NOT metabolized | Compound NOT metabolized | Compound NOT metabolized | Compound NOT metabolized | Compound NOT metabolized | 
4 | CC(C)N(CCC(C(N)=O)(c1ccccc1)c1ccccn1)C(C)C.O=P(O)(O)O (configuration not stated) [DISOPYRAMIDE PHOSPHATE] |  | Compound NOT metabolized | Compound NOT metabolized | Compound NOT metabolized | Compound NOT metabolized | Compound NOT metabolized | Compound NOT metabolized |  |  | Compound NOT metabolized | Compound NOT metabolized |  | Compound NOT metabolized |  | Compound NOT metabolized | Compound NOT metabolized | Compound NOT metabolized | Compound NOT metabolized |  | Compound NOT metabolized
5 | CCN(CC)C(C)CN1c2ccccc2Sc2ccccc21 (configuration not stated) [ETHOPROPAZINE] | Compound metabolized | Compound metabolized | Compound metabolized | Compound NOT metabolized | Compound NOT metabolized | Compound NOT metabolized | Compound metabolized | Compound NOT metabolized | Compound metabolized | Compound NOT metabolized | Compound NOT metabolized | Compound NOT metabolized | Compound NOT metabolized | Compound metabolized | Compound NOT metabolized |  | Compound NOT metabolized | Compound NOT metabolized |  | 
6 | CC1Cc2ccccc2N1NC(=O)c1ccc(Cl)c(S(N)(=O)=O)c1 (configuration not stated) [INDAPAMIDE] | Compound NOT metabolized | Compound NOT metabolized | Compound NOT metabolized | Compound NOT metabolized |  | Compound NOT metabolized | Compound NOT metabolized | Compound NOT metabolized | Compound NOT metabolized | Compound NOT metabolized |  | Compound NOT metabolized | Compound NOT metabolized | Compound NOT metabolized | Compound NOT metabolized | Compound NOT metabolized | Compound NOT metabolized | Compound NOT metabolized | Compound NOT metabolized | 
7 | CCN(CC)CCNC(=O)c1cc(Cl)c(N)cc1OC [METOCLOPRAMIDE] | Compound NOT metabolized | Compound NOT metabolized | Compound NOT metabolized | Compound NOT metabolized | Compound NOT metabolized | Compound NOT metabolized | Compound NOT metabolized |  |  | Compound NOT metabolized | Compound NOT metabolized | Compound NOT metabolized | Compound NOT metabolized | Compound NOT metabolized | Compound NOT metabolized | Compound NOT metabolized | Compound NOT metabolized | Compound NOT metabolized | Compound NOT metabolized | Compound NOT metabolized
8 | Cc1ccccc1N1C(=O)c2cc(S(N)(=O)=O)c(Cl)cc2NC1C (configuration not stated) [METOLAZONE] | Compound NOT metabolized | Compound NOT metabolized | Compound NOT metabolized |  |  | Compound NOT metabolized | Compound NOT metabolized |  |  | Compound NOT metabolized |  | Compound NOT metabolized |  | Compound NOT metabolized | Compound NOT metabolized | Compound NOT metabolized | Compound NOT metabolized | Compound NOT metabolized | Compound NOT metabolized | Compound NOT metabolized
9 | CN(C)C(=O)Oc1cccc([N+](C)(C)C)c1.[Br-] [NEOSTIGMINE BROMIDE] | Compound metabolized | Compound NOT metabolized |  | Compound metabolized | Compound NOT metabolized | Compound NOT metabolized | Compound NOT metabolized | Compound NOT metabolized | Compound NOT metabolized | Compound metabolized | Compound NOT metabolized | Compound metabolized | Compound NOT metabolized | Compound metabolized | Compound NOT metabolized | Compound NOT metabolized | Compound NOT metabolized | Compound NOT metabolized | Compound NOT metabolized | 
